Laboratory results taken from US20240109880A1 (Insilico Medicine IP Limited, priority 2021, published 2024).
In brackets after ≈: the same amount, converted by molar mass.

Tests used:
[1] = target: KAT6A (Homo sapiens (Human), UniProt Q92794); experiment: KAT6A Biochemical Assay (radiometric 384-well, [3H]-Ac-CoA, biotinylated H4(1-30) peptide); conditions: 5 nM KAT6A enzyme solution (2×), 60 min reaction at room temperature
Method: Inhibition of KAT6A enzymatic activity by test compounds was determined using a radiometric 384-well format assay. A 10-point serial dilution of the test compounds were conducted in DMSO and then a volume of 200 nL was transferred into 384-well assay plate by Echo (Labcyte). 10 μL of 2× enzyme solution (5 nM KAT6A (Active Motif) in assay buffer (50 mM Tris-HCl pH 8.0, 50 mM KCl, 0.1 mM EDTA, 5% glycerol, 1 mM DTT)) was dispensed into assay plate except for low control wells, in which 10 μL of assay buffer was transferred. The plate was incubated at room temperature for 15 min before addition of 10 μL of 2×[^3H]-acetyl coenzyme A (Ac-CoA) and substrate peptide mix solution (500 nM (KAT6A) [^3H]-Ac-CoA (PerkinElmer) and 800 nM (KAT6A) biotinylated H4(1-30) peptide (GL Biochem) in assay buffer) to each well to start reaction. The plate was incubated at room temperature for 60 min (KAT6A), and then the reaction was stopped by adding 10 μL of stop solution (cold Ac-CoA (Cayman) in 1× assay buffer). 25 μL of reaction in each well was transferred to Flashplate (PerkinElmer) and incubated for another 1 hour at room temperature. The plate was read on Microbeta and the inhibition percentage of each compound treated well was calculated based on the equation in h %=(Max−sample)/(Max−Min)*100 where Max is signal from high control wells with enzyme, and Min is signal from low control wells with assay buffer only. The in h % data were further fit in XL-Fit to obtain IC50 values using a 4-parameter logistic (4PL) sigmoidal curve model.

[2] = Permeability in Caco-2 Assay; format: in vitro ADME; conditions: human, pH 7.4, 2 hours; for efflux ratio at 2 h, 2 μM: Caco-2, 2.00 μM bi-directionally; for Papp A→B at 2 h, 2 μM: Caco-2, 2.00 μM, pH 7.40
Method: Permeability of test compounds was determined in Caco-2 Assay. Caco-2 cells purchased from ATCC were seeded onto […] (PET) in 96-well Corning Insert plates at 1×10^5 cells/cm2, and refreshed medium every 4-5 days until to the 21st to 28th day for confluent cell monolayer formation. The transport buffer in the study was HBSS with 10.0 mM HEPES at pH 7.40±0.05. Test compound was tested at 2.00 μM bi-directionally in duplicate. Digoxin was tested at 10.0 μM bi-directionally in duplicate, while nadolol and metoprolol were tested at 2.00 μM in A to B direction in duplicate. Final DMSO concentration was adjusted to less than 1%. The plate was incubated for 2 hours in CO2 incubator at 37±1° C., with 5% CO2 at saturated humidity without shaking. And all samples after mixed with acetonitrile containing internal standard were centrifuged at 3200×g for 10 min. For nadolol and metoprolol, 200 μL supernatant solution was diluted with 600 μL ultra-pure water for LC-MS/MS analysis. For digoxin and test compounds, 200 μL supernatant solution was diluted with 200 μL ultra-pure water for LC-MS/MS analysis. Concentrations of test and control compounds in starting solution, donor solution, and receiver solution were quantified by LC-MS/MS methodologies, using peak area ratio of analyte/internal standard. After transport assay, lucifer yellow rejection assay was applied to determine the Caco-2 cell monolayer integrity.

[3] = Kinetic solubility in 50 mM phosphate buffer (pH 7.4); format: physicochemical; conditions: aqueous buffer, kinetic from dmso stock; 50 mM phosphate buffer pH 7.4, 24 hours at room temperature
Method: 10 μL of 10 mM in DMSO of test and control compounds was added into lower chambers of whatman miniuniprep vials, respectively. 490 μL of 50 mM PB (pH 7.4) was added into lower chambers of the whatman miniuniprep vials, respectively. The solubility samples were vortexted for at least 2 minutes. The miniuniprep vials were shaken on a shaker for 24 hours at room temperature at the speed of 800 rpm and then centrifuged for 20 minutes (eg. 4000 rpm). The miniunipreps were compressed to prepare the filtrates for injection into HPLC system to calculate the concentration with standard curve.

Chain of KAT6A (Q92794 whole entry): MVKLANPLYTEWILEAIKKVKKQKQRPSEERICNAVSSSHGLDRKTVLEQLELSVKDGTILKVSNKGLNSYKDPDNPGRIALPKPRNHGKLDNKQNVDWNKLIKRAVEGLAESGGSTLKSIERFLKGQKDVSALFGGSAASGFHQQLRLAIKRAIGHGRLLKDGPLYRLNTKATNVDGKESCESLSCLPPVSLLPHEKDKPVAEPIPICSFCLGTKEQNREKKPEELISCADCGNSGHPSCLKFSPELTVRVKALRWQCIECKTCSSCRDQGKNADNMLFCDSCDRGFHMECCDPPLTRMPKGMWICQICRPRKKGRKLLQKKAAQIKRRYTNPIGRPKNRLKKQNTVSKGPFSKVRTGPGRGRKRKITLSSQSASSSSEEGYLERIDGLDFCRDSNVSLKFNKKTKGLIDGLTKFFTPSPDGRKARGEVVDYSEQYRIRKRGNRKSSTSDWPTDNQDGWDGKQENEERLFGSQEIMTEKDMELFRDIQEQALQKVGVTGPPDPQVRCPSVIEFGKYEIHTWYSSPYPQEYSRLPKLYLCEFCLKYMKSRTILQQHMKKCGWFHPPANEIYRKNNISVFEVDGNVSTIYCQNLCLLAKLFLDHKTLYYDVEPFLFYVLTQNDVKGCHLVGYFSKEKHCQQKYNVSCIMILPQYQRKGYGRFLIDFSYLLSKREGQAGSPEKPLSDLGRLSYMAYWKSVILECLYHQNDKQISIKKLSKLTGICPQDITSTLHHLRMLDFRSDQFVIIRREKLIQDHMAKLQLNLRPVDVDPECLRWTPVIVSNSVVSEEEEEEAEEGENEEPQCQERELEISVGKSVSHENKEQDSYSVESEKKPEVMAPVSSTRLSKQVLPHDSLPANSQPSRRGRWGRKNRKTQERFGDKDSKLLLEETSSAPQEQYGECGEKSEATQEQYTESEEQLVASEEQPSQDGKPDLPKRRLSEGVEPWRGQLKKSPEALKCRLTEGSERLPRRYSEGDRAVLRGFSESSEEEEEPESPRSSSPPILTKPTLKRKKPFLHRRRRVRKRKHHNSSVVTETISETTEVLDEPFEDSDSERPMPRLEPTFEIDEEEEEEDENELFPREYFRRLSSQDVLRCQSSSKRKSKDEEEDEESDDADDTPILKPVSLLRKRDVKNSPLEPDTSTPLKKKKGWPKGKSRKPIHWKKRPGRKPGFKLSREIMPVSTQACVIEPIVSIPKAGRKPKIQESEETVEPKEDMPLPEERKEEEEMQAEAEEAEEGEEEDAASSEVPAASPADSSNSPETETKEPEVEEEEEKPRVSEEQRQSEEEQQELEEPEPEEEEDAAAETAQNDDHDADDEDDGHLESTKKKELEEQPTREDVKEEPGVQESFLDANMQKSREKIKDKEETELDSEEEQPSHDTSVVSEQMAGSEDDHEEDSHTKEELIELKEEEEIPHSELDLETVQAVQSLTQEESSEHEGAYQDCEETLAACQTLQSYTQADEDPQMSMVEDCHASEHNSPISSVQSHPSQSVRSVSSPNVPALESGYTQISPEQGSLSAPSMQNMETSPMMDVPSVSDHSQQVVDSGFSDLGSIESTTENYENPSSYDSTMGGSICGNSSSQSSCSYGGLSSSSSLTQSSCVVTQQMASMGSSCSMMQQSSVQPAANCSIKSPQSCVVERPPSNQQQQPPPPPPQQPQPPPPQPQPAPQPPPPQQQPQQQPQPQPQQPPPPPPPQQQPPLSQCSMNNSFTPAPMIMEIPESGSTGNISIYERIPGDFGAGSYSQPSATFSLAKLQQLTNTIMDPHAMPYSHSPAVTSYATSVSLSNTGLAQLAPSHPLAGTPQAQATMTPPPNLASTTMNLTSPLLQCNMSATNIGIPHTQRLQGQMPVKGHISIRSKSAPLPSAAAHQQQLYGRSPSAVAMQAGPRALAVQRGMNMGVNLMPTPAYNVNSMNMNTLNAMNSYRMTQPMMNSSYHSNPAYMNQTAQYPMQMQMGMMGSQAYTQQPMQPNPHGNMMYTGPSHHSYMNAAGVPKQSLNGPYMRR

Compound	IC50 [1]	efflux ratio at 2 h, 2 μM [2]	Papp A→B at 2 h, 2 μM [2]	solubility kinetic at 24 h [3]
COc1cccc(OC)c1S(=O)(=O)Nc1noc2cc(Oc3ccccn3)cc(OC)c12 [Compound 9, 2,6-dimethoxy-N-(4-methoxy-6-(pyridin-2-yloxy)benzo[d]isoxazol-3-yl)benzenesulfonamide]	10 to 100 nM	3.66	11.8 ×10⁻⁶ cm/s	–
COc1cccc(OC)c1S(=O)(=O)Nc1noc2cc(Cn3cccn3)c3c(c12)OCCC3 [Compound 14, N-(5-((1H-pyrazol-1-yl)methyl)-3,4-dihydro-2H-chromeno [8,7-d]isoxazol-9-yl)-2,6-dimethoxybenzenesulfonamide]	< 10 nM	59.6	0.439 ×10⁻⁶ cm/s	16.1 µM (≈ 7.58 µg/mL)
COc1cccc(OC)c1S(=O)(=O)Nc1noc2cc(Cn3cccn3)c3c(c12)OCCCC3 [Compound 19]	< 10 nM	13.2	3.47 ×10⁻⁶ cm/s	–
COc1cccc(OC)c1S(=O)(=O)Nc1noc2cc(Oc3ccccn3)cc(OC(F)F)c12 [Compound 22, N-(4-(difluoromethoxy)-6-(pyridin-2-yloxy)benzo[d]isoxazol-3-yl)-2,6-dimethoxybenzenesulfonamide]	10 to 100 nM	6.87	3.45 ×10⁻⁶ cm/s	–
COc1cccc(OC)c1S(=O)(=O)Nc1noc2cc(Oc3ccccn3)c3c(c12)OCC3 [Compound 23, 2,6-dimethoxy-N-(4-(pyridin-2-yloxy)-2,3-dihydrobenzofuro [7,6-d]isoxazol-8-yl)benzenesulfonamide]	< 10 nM	14.2	1.3 ×10⁻⁶ cm/s	–
COc1cccc(OC)c1S(=O)(=O)Nc1noc2cc(Oc3ccccn3)c3c(c12)OCCC3 [Compound 24, 2,6-dimethoxy-N-(5-(pyridin-2-yloxy)-3,4-dihydro-2H-chromeno[8,7-d]isoxazol-9-yl)benzenesulfonamide]	< 10 nM	3.2	12.9 ×10⁻⁶ cm/s	189 µM (≈ 91.4 µg/mL)
COc1ccnc(OC)c1S(=O)(=O)Nc1noc2cc(Oc3ccccn3)c3c(c12)OCCC3 [Compound 28, 2,4-dimethoxy-N-(5-(pyridin-2-yloxy)-3,4-dihydro-2H-chromeno[8,7-d]isoxazol-9-yl)pyridine-3-sulfonamide]	10 to 100 nM	9.58	2.38 ×10⁻⁶ cm/s	–
COc1cccc(OC)c1S(=O)(=O)Nc1noc2cc(Cc3ccccn3)c3c(c12)OCCC3 [Compound 46, 2,6-dimethoxy-N-(5-(pyridin-2-ylmethyl)-3,4-dihydro-2H-chromeno[8,7-d]isoxazol-9-yl)benzenesulfonamide]	< 10 nM	15.3	2.66 ×10⁻⁶ cm/s	3.34 µM (≈ 1.61 µg/mL)
COc1cccc(OC)c1S(=O)(=O)Nc1noc2cc(Cc3nccs3)c3c(c12)OCCC3 [Compound 47]	< 10 nM	12.3	3.53 ×10⁻⁶ cm/s	12.1 µM (≈ 5.9 µg/mL)
COc1cc(C)nc(OC)c1S(=O)(=O)Nc1noc2cc(Oc3nccs3)cc(OCF)c12 [Compound 55, N-(4-(fluoromethoxy)-6-(thiazol-2-yloxy)benzo[d]isoxazol-3-yl)-2,4-dimethoxy-6-methylpyridine-3-sulfonamide]	10 to 100 nM	12.3	1.46 ×10⁻⁶ cm/s	–
COc1ccccc1S(=O)(=O)Nc1noc2cc(Oc3nccs3)cc(OCF)c12 [Compound 56, N-(4-(fluoromethoxy)-6-(thiazol-2-yloxy)benzo[d]isoxazol-3-yl)-2-methoxybenzenesulfonamide]	< 10 nM	2.84	5.28 ×10⁻⁶ cm/s	–
COc1cc(C)nc(OC)c1S(=O)(=O)Nc1noc2cc(Oc3nccs3)cc(OC)c12 [Compound 57, 2,4-dimethoxy-N-(4-methoxy-6-(thiazol-2-yloxy)benzo[d]isoxazol-3-yl)-6-methylpyridine-3-sulfonamide]	< 10 nM	–	3.38 ×10⁻⁶ cm/s	–
COc1cccc(OC)c1S(=O)(=O)Nc1noc2cc(Oc3nccs3)cc(OCF)c12 [Compound 58]	< 10 nM	6.17	5.14 ×10⁻⁶ cm/s	–
COc1cccc(OC)c1S(=O)(=O)Nc1noc2cc(Oc3nccs3)cc(OC)c12 [Compound 59, 2,6-dimethoxy-N-(4-methoxy-6-(thiazol-2-yloxy)benzo[d]isoxazol-3-yl)benzenesulfonamide]	< 10 nM	4.53	6.2 ×10⁻⁶ cm/s	–
COc1ccccc1S(=O)(=O)Nc1noc2cc(Oc3nccs3)cc(OC)c12 [Compound 60, 2-methoxy-N-(4-methoxy-6-(thiazol-2-yloxy)benzo[d]isoxazol-3-yl)benzenesulfonamide]	< 10 nM	1.33	13.7 ×10⁻⁶ cm/s	–
COc1ccccc1S(=O)(=O)Nc1noc2cc(Oc3nccs3)c3c(c12)OCCC3 [Compound 61, 2-methoxy-N-(5-(thiazol-2-yloxy)-3,4-dihydro-2H-chromeno[8,7-d]isoxazol-9-yl)benzenesulfonamide]	< 10 nM	1.76	9.38 ×10⁻⁶ cm/s	–
COc1cccc(OC)c1S(=O)(=O)Nc1noc2cc(Oc3nccs3)c3c(c12)OCCCC3 [Compound 62, 2,6-dimethoxy-N-(6-(thiazol-2-yloxy)-2,3,4,5,9,10-hexahydrooxepino[3′,2′:5,6]benzo[1,2-d]isoxazol-10-yl)benzenesulfonamide]	< 10 nM	3.16	10.6 ×10⁻⁶ cm/s	–
COc1ccccc1S(=O)(=O)Nc1noc2cc(Oc3nccs3)c3c(c12)OCCCC3 [Compound 63]	< 10 nM	2.88	6.48 ×10⁻⁶ cm/s	–
COc1cc(C)nc(OC)c1S(=O)(=O)Nc1noc2cc(Oc3nccs3)c3c(c12)OCCCC3 [Compound 64]	< 10 nM	2.82	9 ×10⁻⁶ cm/s	–
COc1cccc(OC)c1S(=O)(=O)Nc1noc2cc(Sc3nccs3)cc(OC)c12 [Compound 66, 2,6-dimethoxy-N-(4-methoxy-6-(thiazol-2-ylthio)benzo[d]isoxazol-3-yl)benzenesulfonamide]	< 10 nM	4.25	6.83 ×10⁻⁶ cm/s	–
COc1ccccc1S(=O)(=O)Nc1noc2cc(Sc3nccs3)cc(OC)c12 [Compound 67, 2-methoxy-N-(4-methoxy-6-(thiazol-2-ylthio)benzo[d]isoxazol-3-yl)benzenesulfonamide]	10 to 100 nM	1.4	10.9 ×10⁻⁶ cm/s	–
COc1cc(C)nc(OC)c1S(=O)(=O)Nc1noc2cc(Sc3nccs3)cc(OC)c12 [Compound 68, 2,4-dimethoxy-N-(4-methoxy-6-(thiazol-2-ylthio)benzo[d]isoxazol-3-yl)-6-methylpyridine-3-sulfonamide]	10 to 100 nM	9.74	2.29 ×10⁻⁶ cm/s	–
COc1cccc(OC)c1S(=O)(=O)Nc1noc2cc(Cn3cccn3)cc(OC)c12 [PF-9363, reference compound]	–	–	0.628 ×10⁻⁶ cm/s	–
